One experiment deals with GPR84 (Homo sapiens, UniProt Q9NQS5). As to the kind of experiment: DiscoverX cell-based reporter assay, agonist mode.
Another experiment concerns the target T1, PPARα (Homo sapiens, UniProt Q07869).
T1 sequence (Q07869 1-468): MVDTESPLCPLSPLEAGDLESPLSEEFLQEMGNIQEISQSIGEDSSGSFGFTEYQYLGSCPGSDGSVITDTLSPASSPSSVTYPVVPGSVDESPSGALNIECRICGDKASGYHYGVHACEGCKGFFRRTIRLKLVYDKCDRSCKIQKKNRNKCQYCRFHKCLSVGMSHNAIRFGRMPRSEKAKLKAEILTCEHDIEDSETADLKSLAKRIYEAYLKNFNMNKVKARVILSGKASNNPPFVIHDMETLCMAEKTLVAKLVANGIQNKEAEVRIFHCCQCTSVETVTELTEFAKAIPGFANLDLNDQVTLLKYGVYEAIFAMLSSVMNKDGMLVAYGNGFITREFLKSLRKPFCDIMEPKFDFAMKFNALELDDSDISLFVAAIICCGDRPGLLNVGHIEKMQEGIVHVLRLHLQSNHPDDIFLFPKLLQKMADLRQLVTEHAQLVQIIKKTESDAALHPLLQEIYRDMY
As to the kind of experiment: DiscoverX cell-based reporter assay, agonist mode.

A further experiment concerns the target T2, PPARδ (Homo sapiens, UniProt Q03181).
T2 sequence (Q03181 1-441): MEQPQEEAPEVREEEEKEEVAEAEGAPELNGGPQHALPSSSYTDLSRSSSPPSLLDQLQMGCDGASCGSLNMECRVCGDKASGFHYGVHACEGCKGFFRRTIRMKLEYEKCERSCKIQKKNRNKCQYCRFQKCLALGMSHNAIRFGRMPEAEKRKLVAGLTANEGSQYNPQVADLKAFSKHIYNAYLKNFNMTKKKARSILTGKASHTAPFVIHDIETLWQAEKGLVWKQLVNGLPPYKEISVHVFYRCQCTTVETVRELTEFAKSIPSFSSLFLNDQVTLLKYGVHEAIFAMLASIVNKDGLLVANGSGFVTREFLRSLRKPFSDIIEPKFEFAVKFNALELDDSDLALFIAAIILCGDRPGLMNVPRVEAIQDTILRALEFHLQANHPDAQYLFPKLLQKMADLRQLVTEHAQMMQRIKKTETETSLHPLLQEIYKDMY
As to the kind of experiment: DiscoverX cell-based reporter assay, agonist mode. On the technique in general: In a reporter assay the amount or activity of a reporter protein is the signal.

The target of experiment [1] is T3, F. prausnitzii FAAH (CGOBPECO_01956) (Faecalibacterium prausnitzii, UniProt A0A564UB45).
T3 sequence (A0A564UB45 31-399): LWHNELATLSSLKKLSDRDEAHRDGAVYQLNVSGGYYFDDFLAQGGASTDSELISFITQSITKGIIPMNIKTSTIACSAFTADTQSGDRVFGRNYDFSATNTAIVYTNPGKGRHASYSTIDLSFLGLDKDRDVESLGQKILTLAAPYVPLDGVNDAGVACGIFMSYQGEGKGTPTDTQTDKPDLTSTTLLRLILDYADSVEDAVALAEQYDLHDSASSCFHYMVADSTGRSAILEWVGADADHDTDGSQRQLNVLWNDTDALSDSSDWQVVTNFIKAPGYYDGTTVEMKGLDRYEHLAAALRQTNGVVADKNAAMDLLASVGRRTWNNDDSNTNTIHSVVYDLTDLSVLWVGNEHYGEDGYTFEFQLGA
As to the kind of experiment: LC-MS hydrolysis rate assay. To be noted: 100 uM OEA. It is filed as biochemical.

Sequence of GPR84 (Q9NQS5 whole entry): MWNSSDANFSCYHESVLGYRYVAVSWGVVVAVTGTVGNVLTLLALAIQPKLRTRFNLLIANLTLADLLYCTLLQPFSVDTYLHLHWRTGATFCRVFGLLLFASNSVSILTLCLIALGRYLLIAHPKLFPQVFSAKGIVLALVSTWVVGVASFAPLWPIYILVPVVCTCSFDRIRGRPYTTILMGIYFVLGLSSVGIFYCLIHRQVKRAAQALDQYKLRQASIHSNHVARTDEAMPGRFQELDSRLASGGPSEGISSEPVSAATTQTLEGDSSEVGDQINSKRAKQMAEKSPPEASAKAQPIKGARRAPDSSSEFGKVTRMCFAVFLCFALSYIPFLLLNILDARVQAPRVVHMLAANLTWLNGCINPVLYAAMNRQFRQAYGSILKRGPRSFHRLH

For `CCCCCCCC/C=C\CCCCCCCC(=O)NCCO` [OEA], the “% activation at 10 μM” value at GPR84 was “GPR84, which was strongly activated by OEA”; on PPARα it was “OEA was a strong agonist of PPARδ and to a lesser extent PPARα”; on PPARδ it was “OEA was a strong agonist of PPARδ and to a lesser extent PPARα”. The “LC-MS hydrolysis rate assay” value in experiment [1] was “hydrolytic activity of FAAH against PEA, OEA, C18:1-Arg, and C18:1-Lys (Fig. 2D)”.

Values taken from publication PMC11572954 (Science (New York, N.Y.), 2024).
